Laboratory results published in patent US6362212B1, “Oxime derivative and bactericide containing the same as active ingredient” (Shionogi & Company, Ltd., priority 1994, dated 2002).

Legend:
Type in all cases: in vivo
Puccinia coronata = experiment: Controlling effect on Puccinia coronata by foliage application (pot experiment); settings: foliage spray on oat (cv. PC-38) seedlings, infected area after 1 day moist chamber and 8 days greenhouse at 20° C.
Method: The following Test Examples illustrate the effects of the fungicide of the present invention. (I. Controlling effects on various plant diseases by foliage application (pot experiment)) A test compound was dissolved in a small amount of N,N-dimethylformamide, and the solution was diluted to a given concentration with distilled water containing a spreader. Thus, a liquid sample to be tested was prepared. The liquid sample was sprayed to test plants, and 24 hours thereafter, pathogens were inoculated by the method described below. […] The seeds of oat (cv.: PC-38) were sown in plastic cups (each 9 cm in diameter), followed by cultivation for 2 to 3 weeks. The test compound in the form of a solution or suspension was sprayed to the seedlings. Spores of Puccinia coronata cultured on oat leaves were collected, diluted about 10-fold with talc, and sprayed to the test plants to inoculate the plants with the pathogen. After the inoculation, the plants were kept in a moist chamber at 20° C. for 1 day and then in a greenhouse at 20° C. for 8 days. The infected area on the leaf was observed, and the percent control was calculated.

[1] = tested on: Pseudoperonospora cubensis; experiment: Controlling effect on Pseudoperonospora cubensis by foliage application (pot experiment); settings: foliage spray on cucumber (var. TSUKUBASHIROIBO) first leaves, lesion area after 10 days in moist chamber at 20° C.
Method: The following Test Examples illustrate the effects of the fungicide of the present invention. (I. Controlling effects on various plant diseases by foliage application (pot experiment)) A test compound was dissolved in a small amount of N,N-dimethylformamide, and the solution was diluted to a given concentration with distilled water containing a spreader. Thus, a liquid sample to be tested was prepared. The liquid sample was sprayed to test plants, and 24 hours thereafter, pathogens were inoculated by the method described below. […] The seeds of cucumber (var.: […]) were sown in plastic cups (each 9 cm in diameter), followed by cultivation for 2 to 3 weeks. The test compound in the form of a solution or suspension was sprayed to the surface of their first leaves, and a zoosporangia suspension of Pseudoperonospora cubensis cultured on cucumber leaves was dropped on the above leaf surfaces to inoculate the test plants with the pathogen. After the inoculation, the plants were kept in a moist chamber at 20° C. for 10 days. Then, the area of the lesions around the inoculum were observed and the percent control was calculated.

[2] = tested on: Erysiphe graminis f. sp. tritici; experiment: Controlling effect on Erysiphe graminis f. sp. tritici by foliage application (pot experiment); settings: foliage spray on wheat (cv. NORIN No. 61) seedlings, infected area after 10 days in greenhouse at 20° C.
Summary of the method: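 Wheat seedlings (cv. NORIN No. 61, 2-3 weeks old) sprayed with compound in DMF diluted in water with spreader, then inoculated with conidia 24 hours later. Kept in greenhouse at 20 °C for 10 days; percent control calculated from infected leaf area.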

Sphaerotheca fuliginea = experiment: Controlling effect on Sphaerotheca fuliginea by foliage application (pot experiment); settings: foliage spray on cucumber (cv. TSUKUBASHIROIBO) first leaves, infected area after 10 days in greenhouse at 20° C.
Summary of the method: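 First leaves of cucumber seedlings, 2-3 weeks old, were sprayed with compound (DMF solution diluted in water with spreader). They were inoculated 24 h later with a Sphaerotheca fuliginea conidia spray and kept 10 days at 20° C in a greenhouse. Percent control was calculated from infected leaf area.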

Pyricularia oryzae = settings: foliage spray on rice seedlings (cv. […]), number of lesions six days after the inoculation
Botrytis cinerea = experiment: Controlling effect on Botrytis cinerea by foliage application (pot experiment); settings: foliage spray on cucumber (cv. TSUKUBASHIROIBO) first leaves, mycelial disks, lesion diameter after 3 days in moist chamber at 20° C.
Method: The following Test Examples illustrate the effects of the fungicide of the present invention. (I. Controlling effects on various plant diseases by foliage application (pot experiment)) A test compound was dissolved in a small amount of N,N-dimethylformamide, and the solution was diluted to a given concentration with distilled water containing a spreader. Thus, a liquid sample to be tested was prepared. The liquid sample was sprayed to test plants, and 24 hours thereafter, pathogens were inoculated by the method described below. […] The seeds of cucumber ([…]) were sown in plastic cups (each 9 cm in diameter), followed by cultivation for 2 to 3 weeks. The test compound in the form of a solution or suspension was sprayed to the surface of their first leaves, and mycelial disks (4 mm φ) of Botrytis cinerea cultured on the potato sucrose agar medium were put on the leaf surfaces to inoculate. the cucumber seedlings with the pathogen. The plants were kept in a moist chamber at 20° C. for 3 days. The diameter of the lesions on the leaves was measured and the percent control was calculated.

Row | Compound | Controllng effect on Puccinia coronata by foliage application at 500 ppm (percent control) (Puccinia coronata) | Controlling effect on Pseudoperonospora cubensis by foliage application at 500 ppm (percent control) [1] | Controlling effect on ErYsiphe graminis f. sp. tritici by foliage application at 500 ppm (percent control) [2] | Controlling effect on Sphaerotheca fuliginea by foliage application at 500 ppm (percent control) (Sphaerotheca fuliginea) | Controlling effect on PYricularia orYzae by foliage application at 500 ppm (percent control) (Pyricularia oryzae) | Controlling effect on Botrytis cinerea by foliage application at 500 ppm (percent control) (Botrytis cinerea) | pest or weed control at 500 ppm ([2]; Blumeria graminis, foliar, 240 h, read-out: Controlling effect on ErYsiphe graminis f. sp. tritici by foliage application at 500 ppm (percent control)) | pest or weed control at 500 ppm (Sphaerotheca fuliginea; Podosphaera fuliginea, in Cucumis sativus, foliar, 240 h, read-out: Controlling effect on Sphaerotheca fuliginea by foliage application at 500 ppm (percent control))
1 | CON=C(c1cnco1)c1ccccc1COc1ccccc1 (mixture of isomers) [compound 1721] | 70 percent control | 100 percent control | 90 percent control | 100 percent control |  |  |  | 
2 | CON=C(c1ccccc1COc1ccccc1C)c1nccn1C (single isomer, unassigned) [112A] | 100 percent control | 97 percent control | 100 percent control | 100 percent control | 97 percent control |  |  | 
3 | CON=C(c1ccccc1COc1ccc(Cl)cc1Cl)c1nccn1C (single isomer, unassigned) [130A] |  | 100 percent control |  | 100 percent control |  | 70 percent control |  | 
4 | CON=C(c1ccno1)c1ccccc1COc1cc(C)ccc1C (single isomer, unassigned) [536B] | 97 percent control | 100 percent control | 100 percent control | 90 percent control | 70 percent control |  |  | 
5 | CON=C(c1cc(C)no1)c1ccccc1COc1ccccc1C (single isomer, unassigned) [612A] | 97 percent control | 100 percent control | 100 percent control | 97 percent control | 90 percent control |  |  | 
6 | CON=C(c1cc(C)no1)c1ccccc1COc1cc(C)ccc1C (single isomer, unassigned) [636A, 2-(2,5-dimethylphenoxymethyl)phenyl 3-methylisoxazol-5-yl ketone O-methyloxime] | 100 percent control |  |  |  | 97 percent control |  | 100% | 97%
7 | CON=C(c1cc(C)no1)c1ccccc1COc1cc(C)ccc1C (single isomer, unassigned) [636B, 2-(2,5-dimethylphenoxymethyl)phenyl 3-methylisoxazol-5-yl ketone O-methyloxime] | 90 percent control |  | 100 percent control | 100 percent control | 70 percent control |  |  | 
8 | CON=C(c1noc(C)n1)c1ccccc1COc1cc(C)ccc1C (single isomer, unassigned) [936A] | 90 percent control |  | 97 percent control | 100 percent control | 97 percent control |  |  | 
9 | CON=C(c1nnco1)c1ccccc1COc1ccccc1C [Compound No. 712] | 100 percent control |  | 100 percent control | 100 percent control | 90 percent control |  |  | 
10 | CON=C(c1ccccc1COc1ccc(Cl)cc1)n1cncn1 [compound 267] | 90 percent control |  | 97 percent control | 100 percent control | 90 percent control |  |  | 
11 | CON=C(c1nnco1)c1ccccc1COc1ccccc1 [compound 701] | 97 percent control | 100 percent control | 70 percent control | 100 percent control |  |  |  | 
12 | CON=C(c1nnco1)c1ccccc1COc1cccc(C(F)(F)F)c1 [compound 722] | 97 percent control | 100 percent control | 90 percent control | 100 percent control | 90 percent control |  |  | 
13 | CON=C(c1ncon1)c1ccccc1COc1ccccc1 [compound 801] | 97 percent control | 100 percent control | 90 percent control | 100 percent control | 70 percent control |  |  | 
14 | CON=C(C1=NCCN1C)c1ccccc1COc1ccccc1C [compound 1112] | 70 percent control |  | 90 percent control | 100 percent control | 97 percent control |  |  | 
15 | CON=C(C1=NCCO1)c1ccccc1COc1cc(C)ccc1C [compound 1328] | 70 percent control |  | 90 percent control | 100 percent control | 90 percent control |  |  | 
